Source: patent publication EP4600262A1, “KERATIN YK93-5, PREPARATION METHOD, AND PHARMACEUTICAL COMPOSITION AND USE THEREOF” (INSTITUTE OF MATERIA MEDICA, CHINESE ACADEMY OF MEDICAL …, priority 2022, dated 2024)
Counter-ions that a name gives are not always drawn.

Columns and labels:
B16F10 melanoma = conditions: CTX 0.1 g/kg once a week, YK93-5 2 g/kg daily
Experimental: • Preparation of experimental animals: The experimental animals were adapted to the experimental environment (temperature 22°C±2°C, relative humidity 50%±2%) for 1 day. • Subcutaneous inoculation of B16F10 cell suspension to replicate a mouse melanoma model: Under sterile conditions, the tumor block was removed, ground into tumor fluid, the concentration was adjusted with physiological saline to 2.58 × 10^6 /ml, and 0.2 ml was taken to evenly inoculate subcutaneously on the armpit back of mice. On the next day, the animals were randomly grouped and administration began (recorded as Day 0). […] On the day of treatment, weight was measured, 20µL of blood was obtained by taking blood from the eye socket and the blood routine analysis was performed, the tumor block was peeled off, weighed and photographed, and the tumor suppression rate was calculated.
The tumor suppression rate [(The average weight of the tumor in the normal control group - the average weight of the tumor in the experimental group) / The average weight of the tumor in the normal control group × 100 %] and average value, standard deviation and standard errors of tumor weight were calculated. The data from the groups were compared with each other by T.TEST, and P<0.05 was considered as a significant difference.

mouse pain model = mouse pain model (1% acetic acid writhing); format: in vivo, Male Kunming mice; conditions: within 15 minutes after 1% acetic acid intraperitoneally; Tramadol Hydrochloride 50mg/kg, YK93-5 2g/kg by gavage once a day for 7 days
Experimental: 30 minutes after the last administration, 1% acetic acid was administered intraperitoneally, and the writhing times of mice within 15 minutes was recorded, and the inhibition rate of drug-induced writhing reaction was calculated. The observation criteria were concave abdominal cavity, extended hind limbs, and raised buttocks.
The inhibition rate was calculated by (Mean number of writhing reactions in the normal control group - Mean number of writhing reactions in the treatment group)/Mean number of writhing reactions in the normal control group *100%. The mean value, standard deviation, and standard error of the number of writhing was recorded, and the data from the groups were compared with each other by T.TEST, and P<0.05 was considered as a significant difference.

[1] = system: mouse prostatic hyperplasia model; assay: mouse prostatic hyperplasia model (propionate testosterone, androgen loading); format: in vivo, Male Kunming mice; conditions: finasteride 1mg/kg, YK93-5 0.5g/kg
Experimental: • Animals: Male Kunming mice, weight: 18-20 grams • Drugs: propionate testosterone injection (Ningbo Second Hormon Factory); finasteride (Merck Sharp & Dohme, MSD), YK93-5 • Instruments: electronic balance, timer
• Normal control group; • Model group: Androgen loading Model; • Positive control group: finasteride (1mg/kg) group; • YK93-5 (0.5g/kg) group.
• Preparation of experimental animals: The experimental animals were adapted to the experimental environment (temperature 22°C±2°C, relative humidity 50%±2%) for 1 day. • Subcutaneous injection of propionate testosterone to replicate mice prostatic hyperplasia model: Mice were randomly grouped 10-12 in each group before the model being established. Propionate testosterone (0.01mg/kg) in soybean oil was injected subcutaneously, once a day for 30 consecutive days. Mice in the normal control group were injected subcutaneously with an equal volume of sodium carboxymethyl cellulose. Immediately after the model was established, finasteride 1mg/kg, or YK93-5 0.5g/kg were orally administered. Mice were weighed on the next day. After 30 days of administration, mice were weighed, executed. The prostate was excised through a median incision in the lower abdomen, the wet weight was weighed, and the prostate index was calculated by the wet weight of the prostate (mg)/body weight of the mouse (g). […] with 4% paraformaldehyde, embedded in paraffin, and cut into thin slices with the largest surface. Hematoxylin and eosin staining were used to examine the pathological changes of tissue slices.
The average value, standard deviation and standard error of the prostate index and pathological score in each group were calculated. The data from the groups were compared with each other by TTEST, and P<0.05 was considered as a significant difference.

Experimental for Lewis lung cancer: • Preparation of experimental animals: The experimental animals were adapted to the experimental environment (temperature 22°C±2°C, relative humidity 50%±2%) for 1 day. • Subcutaneous inoculation of Lewis cell suspension to replicate mouse breast cancer model: The Lewis tumor tissue was ground into a suspension with a glass homogenizer, the tumor suspension was aspirated with a syringe, the number of live cells was calculated, the concentration of the cells was adjusted to 2.6*10^6/ml with physiological saline, and then the suspension was injected to the left armpit of the mouse with 0.2 ml/mouse. […] On the day of the treatment, the weight was measured, 20µl of blood was obtained from the orbital blood and the routine blood analysis was performed. The tumor blocks were stripped, weighed and photographed, and the tumor suppression rate was calculated.
The tumor suppression rate [(The average weight of the tumor in the normal control group - the average weight of the tumor in the experimental group) / The average weight of the tumor in the normal control group × 100 %] and the average value, standard deviation and standard errors of tumor weight were calculated. The data from the groups were compared with each other by T.TEST, and P<0.05 was considered as a significant difference.

For `O=P1(N(CCCl)CCCl)NCCCO1` (centres unmarked) [Cyclophosphamide], the “Change of weight (g) After administration” value (Lewis lung cancer; body weight after administration, cyclophosphamide 0.1 g/kg intraperitoneally single time, YK93-5 2 g/kg intragastric daily for 17 days) was 21.07 ± 1.61 g, the “Change of weight (g) Before administration” value (Lewis lung cancer; body weight before administration) was 20.52 ± 1.83 g and the “Tumor suppression (%)” value (Lewis lung cancer; cyclophosphamide 0.1 g/kg intraperitoneally single time, YK93-5 2 g/kg intragastric daily for 17 days) was 91.22%. The “Tumor weight” value (B16F10 melanoma) was 0.26 ± 0.11 g.

Molecule `COc1cccc(C2(O)CCCCC2CN(C)C)c1` (centres unmarked) [Tramadol Hydrochloride] has a Number of writhing (mouse pain model) of 1.75±4.56.

With `CC(C)(C)NC(=O)[C@H]1CC[C@H]2[C@@H]3CC[C@H]4NC(=O)C=C[C@]4(C)[C@H]3CC[C@]12C` [finasteride] the “wet weight of the prostate” value ([1]; after 30 days of oral administration) was 40.4 ± 9.2 mg, the “pathological damage of prostatic hyperplasia (histopathology, H&E)” value ([1]; compared with the model group, 30 days oral) was “the trend of hyperplasia improves, but there is no statistical difference” and the prostate index ([1]; wet weight of the prostate (mg)/body weight of the mouse (g), 30 days oral) was 0.95±0.24.
